Reference: patent US20260083864A1, “CONTRAST AGENTS FOR USE IN DIAGNOSTIC COMPUTED TOMOGRAPHY IMAGING” (Bayer Aktiengesellschaft, priority 2022, published 2026)
Read-outs that look alike come from different tables or passages of the source.

Key:
[1] = reference compounds, 1.5 T, 37° C., from Rohrer et al.; cited from earlier work
[2] = reference compounds, 1.5 T, 37° C., bovine plasma instead of human plasma, from Rohrer et al.; cited from earlier work
[3] = Partition coefficient (log P butanol/buffer); type: physicochemical; settings: 1-butanol / 50 mM Tris-HCl, pH 7.4, room temperature
[4] = system: freshly isolated rat hepatocytes; assay: Uptake into freshly isolated rat hepatocytes; settings: for Inhibition Rifampicine: rat hepatocyte uptake, test item and Rifampicine 1:1, each 100 μM; for Uptake rat hepatocytes: 100 μmol Gd/L, 10 min, 37° C., relative to RC1 (Gd-EOB-DTPA)
[5] = Complex stability (transmetallation) against Zn2+ in phosphate buffer; settings: 72 hours, 2.5 mM Zn^2+, 26 mM phosphate buffer, 37° C., pH 7.4
From the text: If test compounds are instable under these conditions, transmetallation during this test would lead to the formation of the Zn^2+ complex of the test item, while Gd^3+ is released and precipitated as highly insoluble GdPO4.

OATP1B1 = target: T1, OATP1B1 (Homo sapiens, UniProt Q9Y6L6); assay: Uptake into stable transfected OATP1B1 HEK 293 cells; type: cell-based; settings: for Uptake into OATP1B1-HEK 293 cells: 40 min incubation, relative to RC1 (Gd-EOB-DTPA); for Inhibition Rifampicine: uptake into OATP1B1-HEK 293 cells
T1 sequence (Q9Y6L6 1-691): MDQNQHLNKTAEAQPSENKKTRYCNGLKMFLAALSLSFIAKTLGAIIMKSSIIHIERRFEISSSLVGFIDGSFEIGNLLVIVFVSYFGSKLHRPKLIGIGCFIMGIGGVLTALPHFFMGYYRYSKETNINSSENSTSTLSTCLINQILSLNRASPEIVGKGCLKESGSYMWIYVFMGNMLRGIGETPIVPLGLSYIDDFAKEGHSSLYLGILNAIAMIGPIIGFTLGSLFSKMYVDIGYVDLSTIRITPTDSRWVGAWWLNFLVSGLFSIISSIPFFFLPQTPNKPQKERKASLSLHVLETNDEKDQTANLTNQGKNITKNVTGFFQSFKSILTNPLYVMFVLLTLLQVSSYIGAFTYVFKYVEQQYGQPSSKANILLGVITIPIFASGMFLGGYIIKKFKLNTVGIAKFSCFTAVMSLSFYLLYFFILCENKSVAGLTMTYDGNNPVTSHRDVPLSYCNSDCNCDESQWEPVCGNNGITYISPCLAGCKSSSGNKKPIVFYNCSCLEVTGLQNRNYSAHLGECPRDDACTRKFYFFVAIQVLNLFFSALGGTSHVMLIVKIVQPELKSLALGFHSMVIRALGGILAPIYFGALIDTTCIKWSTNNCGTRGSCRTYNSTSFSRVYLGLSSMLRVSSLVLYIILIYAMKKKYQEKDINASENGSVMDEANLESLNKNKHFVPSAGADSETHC
Method in brief: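 Uptake measured in triplicate after a 40 min, unshaken exposure of OATP1B1-expressing HEK293 cells to 100 µM (final) compound in transport buffer. Cold PBS wash stopped uptake; Gd-EOB-DTPA served as reference standard within each plate.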

OATP1B3 = target: T2, OATP1B3 (Homo sapiens, UniProt Q9NPD5); assay: Uptake into stable transfected OATP1B3 HEK 293 cells; type: cell-based; settings: for Uptake into OATP1B3-HEK 293 cells: 40 min incubation, relative to RC1 (Gd-EOB-DTPA); for Inhibition Rifampicine: uptake into OATP1B3-HEK 293 cells
T2 sequence (Q9NPD5 1-702): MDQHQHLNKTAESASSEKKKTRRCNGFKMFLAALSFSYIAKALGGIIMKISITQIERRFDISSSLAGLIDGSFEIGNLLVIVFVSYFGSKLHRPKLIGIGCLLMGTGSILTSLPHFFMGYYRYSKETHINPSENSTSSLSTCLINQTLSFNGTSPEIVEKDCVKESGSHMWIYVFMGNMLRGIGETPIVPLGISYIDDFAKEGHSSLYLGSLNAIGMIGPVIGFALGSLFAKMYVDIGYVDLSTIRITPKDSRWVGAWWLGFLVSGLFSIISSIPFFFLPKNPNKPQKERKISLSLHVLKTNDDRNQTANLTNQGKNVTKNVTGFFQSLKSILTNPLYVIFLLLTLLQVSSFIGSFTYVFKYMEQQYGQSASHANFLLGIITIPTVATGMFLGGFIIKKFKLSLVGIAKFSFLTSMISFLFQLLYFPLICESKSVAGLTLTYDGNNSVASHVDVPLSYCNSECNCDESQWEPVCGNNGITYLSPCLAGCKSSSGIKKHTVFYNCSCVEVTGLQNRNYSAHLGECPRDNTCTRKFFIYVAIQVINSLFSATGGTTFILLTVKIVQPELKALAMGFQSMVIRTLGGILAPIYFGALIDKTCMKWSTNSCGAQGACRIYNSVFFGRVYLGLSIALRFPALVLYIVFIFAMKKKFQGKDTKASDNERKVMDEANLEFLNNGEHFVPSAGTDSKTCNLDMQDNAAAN
Method in brief: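 HEK 293 cells stably transfected with human OATP1B3 were incubated for 40 min with test items at 100 μM final in transport buffer, in triplicate, then washed with cold PBS. Gadoxetate (Gd-EOB-DTPA) served as the reference standard on the same plate.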

[6] = Water solubility in aqueous buffer; settings: aqueous buffer 10 mM Tris-HCl, pH 7.4, 20° C.
Protocol: The solid compounds were added stepwise to the buffer solution. More substance is added once all the suspended material is dissolved until an equilibrium between undissolved and dissolved substance is reached. The suspension was mixed using a shaker (Heidolph Reax 2000) and treated 5 min in an ultrasound bath (Bandelin, Sonorex Super RK255H).

[7] = Relaxivity measurements at 1.41 T in human plasma; type: physicochemical; settings: 37° C., normalized to Gd
Method in brief: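 T1 determined by inversion recovery (8 inversion-time steps) and T2 by CPMG sequence, both with relaxation delay ≥5×T1. Each relaxivity used three Gd concentrations between 0.05 and 2 mM. Relaxivities were derived from relaxation rates measured in water and plasma.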

[8] = Relaxivity measurements at 1.41 T in water; type: physicochemical; settings: 37° C., normalized to Gd
Method in brief: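 T1 by inversion recovery and T2 by CPMG at 1.41 T (60 MHz), 37° C, relaxation delay ≥5×T1. Three Gd concentrations between 0.05 and 2 mM; relaxivities derived from measured relaxation rates in water.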

[9] = of the administered dose, literature; cited from earlier work

Row | Compound | r1 water [1] [L/mmol/s] | r1 plasma (r1 human plasma) [2] [L/mmol/s] | Log P (partition coefficient butanol/buffer) [3] | Inhibition Rifampicine [4] [% inhibition] | Transmetallation stability [5] [%] | Uptake into OATP1B1-HEK 293 cells (OATP1B1) | Inhibition Rifampicine (OATP1B1) [% inhibition] | Uptake into OATP1B3-HEK 293 cells (OATP1B3) | Inhibition Rifampicine (OATP1B3) [% inhibition] | Solubility [6] [mM] | r1 human plasma [7] [L/mmol/s] | r1 water [8] [L/mmol/s] | Uptake rat hepatocytes [4] | Secreted / excreted into the bile [9]
1 | O=C([O-])CN1CCN(CC(=O)[O-])CCN([C@H](CO)[C@H](O)CO)CCN(CC(=O)[O-])CC1.[Gd+3] (racemic) [RC3, gadobutrol, reference compound] | 3.3 | 5.2 | −2.22 | 0 |  |  |  |  |  |  |  |  |  | 
2 | CCOCCOc1ccc(CC(C(=O)O)N2CCN(CC(=O)[O-])CCN(C(COC)C(=O)[O-])CCN(CC(=O)[O-])CC2)cc1.[Gd+3] (stereo not drawn) [Example 38, gadolinium 2-[7-{1-carboxy-2-[4-(2-ethoxyethoxy)phenyl]ethyl}-4,10-bis(carboxylatomethyl)-1,4,7,10-tetraazacyclododecan-1-yl]-3-methoxypropanoate] |  |  | −1.41 | 94 | 97 | 137 % of RC1 | 65 | 24 % of RC1 | 94 | >103 | 7.5 | 5.6 | 62 % of RC1 | 
3 | CCOCCOCCOc1ccc(CC(C(=O)[O-])N2CCN(CC(=O)[O-])CCN(C(CC)C(=O)O)CCN(CC(=O)[O-])CC2)cc1.[Gd+3] (stereo not drawn) [Example 43, gadolinium-2-{4,10-bis(carboxylatomethyl)-7-[1-carboxypropyl]-1,4,7,10-tetraazacyclododecan-1-yl}-3-{4-[2-(2-ethoxyethoxy)ethoxy]phenyl}propanoate] |  |  | −1.19 | 97 | 102 | 122 % of RC1 | 62 | 111 % of RC1 | 99 | >209 | 6.9 | 4.8 | 90 % of RC1 | 
4 | COCC(C(=O)O)N1CCN(CC(=O)[O-])CCN(C(Cc2ccc(OCC(F)(F)C(F)F)cc2)C(=O)[O-])CCN(CC(=O)[O-])CC1.[Gd+3] (stereo not drawn) [Example 45, gadolinium-2-{4,10-bis(carboxylatomethyl)-7-[1-carboxy-2-methoxyethyl]-1,4,7,10-tetraazacyclododecan-1-yl}-3-[4-(2,2,3,3-tetrafluoropropoxy)phenyl]propanoate] |  |  | −0.36 | 82 | 100 | 492 % of RC1 | 95 | 106 % of RC1 | 98 | >63 | 11.4 | 4.5 | 68 % of RC1 | 
5 | O=C([O-])CN1CCN(CC(=O)[O-])CCN(C(Cc2ccc(OCC(F)(F)C(F)F)cc2)C(=O)O)CCN(CC(=O)[O-])CC1.[Gd+3] (stereo not drawn) [Example 46, gadolinium 2,2′,2″-(10-{1-carboxy-2-[4-(2,2,3,3-tetrafluoropropoxy)phenyl]ethyl}-1,4,7,10-tetraazacyclododecane-1,4,7-triyl)triacetate] |  |  | −0.57 | 90 | 101 | 356 % of RC1 | 95 | 43 % of RC1 | 97 | >263 | 10.8 | 3.5 | 106 % of RC1 | 
6 | O=C([O-])CN(CCN(CC(=O)[O-])CC(=O)[O-])CCN(CC(=O)[O-])C(COCc1ccccc1)C(=O)[O-].[Gd+3].[H+].[H+] (stereo not drawn) [Gd-BOPTA, gadobenic acid] |  |  |  |  |  |  |  |  |  |  |  |  |  | 3-to-5%
7 | CCOc1ccc(C[C@@H](CN(CCN(CC(=O)[O-])CC(=O)[O-])CC(=O)[O-])N(CC(=O)[O-])CC(=O)[O-])cc1.[Gd+3].[H+].[H+] [Gd-EOB-DTPA, gadoxetic acid] |  |  |  |  |  |  |  |  |  |  |  |  |  | up to 50%
8 | O=C([O-])CN(CCN(CC(=O)[O-])CC(=O)[O-])CCN(CC(=O)[O-])C(COCc1ccccc1)C(=O)[O-].[Gd+3].[H+].[H+] (stereo not drawn) [RC2, gadobenic acid, reference compound] | 3.3 | 4.1 | −2.07 | 79 | 14 | 31 % of RC1 | 61 | 4 % of RC1 | 87 |  |  |  | 9 % of RC1 | 
